Experimental data as given in patent publication US20080312192A1, “Diaryl Urea Derivatives in the Treatment of Protein Kinase Dependent Diseases” (priority 2003, published 2008).

How the values were obtained:
D835Y-Ba/F3 = details: Mus musculus, BaF3, 48 h, read-out: Inhibition of Flt-3 dependent Proliferation (ED50) D835-mutant
Procedure: (§1) Inhibition of Proliferation in Flt-3 Dependent Ba/F3 Cells:
(§2) The compound's potential to penetrate cell membranes and exert antiproliferative effects is determined in Ba/F3 cells dependent on mutated [ITD or D835Y; Gilliland and Griffin, Blood, Vol. 100, No. 5, 153242 (2002)] Flt-3 receptor kinases.
(§3) A modified protocol of the YO-PRO-1 assay in a 96-well format is based on the use of the wild-type IL-3-dependent hematopoietic cell line Ba/F3 (DSMZ, Braunschweig, Germany) and the mutant sub-lines ITD-Ba/F3 or D835Y-Ba/F3 [Weisberg et al., Cancer Cell 1 (5):433-43 (2000)] expressing constitutively activating Flt-3 kinases.
(§4) ITD-FLT3- or D835Y-FLT3-Ba/F3 cells are diluted in fresh medium to a final concentration of 3×10^5 cells per ml and 50 μl aliquots seeded into 96-well plates (1.5×10^4 cells per well). Subsequently, 50 μl 2× compound solutions were added and cells incubated for 48 h. The anti-proliferative and apoptotic activity of a compound is initially tested in triplicates at 10 μM, 1 μM and 0.1 μM concentration on both cell lines. Cells treated with DMSO alone (added to a final concentration of 0.1%) always serves as a control. In addition, a plate blank value is routinely determined in a well containing only 100 μl of medium and no cells.
(§5) To further profile a compound an ED50 determination is done starting at 10 μM or 3 μM of the compound of interest. From those concentrations, stepwise nine dilutions are prepared reaching the final concentrations of 2 μM and 0.5 μM, respectively.
(§6) Activity of inhibitors is assessed by the YO-PRO-1 assay as previously described in [Idziorek et al., J. Immunol. […] Briefly, after the treatment period of 48 h, a 25 μl aliquot of a solution containing 100 mM sodium citrate, pH 4.0, 134 mM sodium chloride and 12.5 μM YO-PRO-1 dye (YO-PRO-1 iodide, #Y3603, Molecular Probes) is directly added to the 100 μl medium in the wells of the 96-well plate. That results in a final dye concentration of 2.5 μM, the plate is then incubated for 10 min at ambient temperature in the dark. The uptake of the YO-PRO-1 dye into cells is assessed by a first measurement using a Cytofluor II 96-well plate reader (PerSeptive Biosystems) with the following settings: Excitation (nm) 485120 and Emission (nm) 530/25, Gain 75. After this first reading, 25 μl of lysis buffer consisting of 20 mM sodium citrate, pH 4.0, 26.8 mM sodium chloride, 0.4% NP40, 20 mM EDTA and 20 mM is added to each well. Cell lysis is completed within 60 min at room temperature and total amount of YO-PRO-1 bound to DNA is determined by a second measurement using the Cytofluor II 96-well reader with the identical setting as described above.

ITD-Ba/F3 = details: Mus musculus, BaF3, 48 h, read-out: Inhibition of Flt-3 dependent Proliferation (ED50) ITD-mutant
Procedure: as §1, §2, §3, §4, §5, §6

RET = biological target: T1, RET (Homo sapiens, UniProt P07949); test: RET kinase inhibition (33P incorporation into poly(Glu,Tyr), GST-wtRET or GST-RET-Men2B); type: biochemical
T1 construct: expresses the amino acid region 658-1072 (Swiss prot No. Q9BTB0); made in house; host or cells: Sf9 insect cells (baculovirus, vector pFB-GSTX3)
T1 sequence (P07949 658-1072 isoform P07949-2): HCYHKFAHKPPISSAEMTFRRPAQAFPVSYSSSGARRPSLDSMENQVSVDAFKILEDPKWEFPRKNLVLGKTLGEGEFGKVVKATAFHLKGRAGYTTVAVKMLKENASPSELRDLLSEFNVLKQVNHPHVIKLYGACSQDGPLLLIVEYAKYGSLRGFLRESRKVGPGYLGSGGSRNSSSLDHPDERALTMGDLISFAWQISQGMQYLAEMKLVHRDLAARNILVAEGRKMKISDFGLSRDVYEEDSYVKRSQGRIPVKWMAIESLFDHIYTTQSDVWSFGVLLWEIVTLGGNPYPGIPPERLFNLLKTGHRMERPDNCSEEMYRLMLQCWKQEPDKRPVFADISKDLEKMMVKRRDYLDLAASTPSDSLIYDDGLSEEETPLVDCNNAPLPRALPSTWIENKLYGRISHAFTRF
Procedure: RET kinase inhibition is determined as follows:
The coding sequence for the cytoplasmic domain of wtRET is amplified by PCR from a cDNA library using specific primers. RET-Men2B is generated through site-directed mutagenesis resulting in the M918T mutation. The amplified DNA fragments and the pFB-GSTX3 vector are made compatible for ligation by digestion with SalI and KpnI. Ligation of these DNA fragments results in the baculovirus donor plasmids […] and pFB-GX3-RET-Men2B, respectively.
Production of virus: The baculovirus donor plasmids containing the kinase domains are transfected into the DH10Bac cell line (GIBCO) and the transfected cells are plated on selective agar plates. Colonies without insertion of the fusion sequence into the viral genome (carried by the bacteria) are blue. Single, white colonies are picked and viral DNA (bacmid) is isolated from the bacteria by standard plasmid purification procedures. Sf9 cells or Sf21 cells (American Type Culture Collection) are then transfected in 25 cm^2 flasks with the viral DNA using Cellfectin reagent.
Protein expression in Sf9 cells: Virus-containing media is collected from the transfected cell culture and used for infection to increase its titer. Virus-containing media obtained after two rounds of infection is used for large-scale protein expression. For large-scale protein expression 100 cm^2 round tissue culture plates are seeded with 5×10^7 cells/plate and infected with 1 mL of virus-containing media (approximately 5 MOIs). After 3 days, the cells are scraped off the plate and centrifuged at 500 rpm for 5 minutes. Cell pellets from 10-20, 100 cm^2 plates are re-suspended in 50 mL of ice-cold lysis buffer (25 mM Tris-HCl, pH 7.5, 2 mM EDTA, 1% NP-40, 1 mM DTT, 1 mM PMSF). The cells are stirred on ice for 15 minutes and then centrifuged at 5,000 rpms for 20 minutes.
Purification of GST-tagged proteins: The centrifuged cell lysate is loaded onto a 2 mL glutathione-sepharose column (Pharmacia) and washed 3× with 10 mL of 25 mM Tris-HCl, pH 7.5, 2 mM EDTA, 1 mM DTT, 200 mM NaCl. The GST-tagged proteins are then eluted by 10 applications (1 mL each) of 25 mM Tris-HCl, pH 7.5, 10 mM reduced-glutathione, 100 mM NaCl, 1 mM DTT, 10% glycerol and stored at −70° C.
Measure of enzyme activity: Tyrosine protein kinase assays with either purified GST-wtRET or GST-RET-Men2B protein are carried out in a final volume of 30 μL containing 15 ng of either GST-RET or GST-RET-Men2B protein, 20 mM Tris-HCl, pH 7.5, 1 mM MnCl2, 10 mM MgCl2, 1 mM DTT, 3 μg/mL poly(Glu, Tyr) 4:1, 1% DMSO, 2.0 μM ATP (γ-[^33P]-ATP 0.1 μCi). The activity is assayed in the presence or absence of inhibitors, by measuring the incorporation of ^33P from [γ^33P] ATP into poly(Glu, Tyr) 4:1. […] Subsequently, 40 μL of the reaction mixture are transferred onto Immobilon-PVDF membrane (Millipore) previously soaked for 5 minutes with methanol, rinsed with water, then soaked for 5 minutes with 0.5% H3PO4 and mounted on vacuum manifold with disconnected vacuum source. After spotting all samples, vacuum is connected and each well rinsed with 200 μL 0.5% H3PO4. Membranes are removed and washed 4× on a shaker with 1.0% H3PO4, once with ethanol. Membranes are counted after drying at ambient temperature, mounting in Packard TopCount 96-well frame, and addition of 10 μl/well of Microscint™ (Packard). […] One unit of protein kinase activity is defined as 1 nmole of ^33P transferred from [γ^33P] ATP to the substrate protein/minute/mg of protein at 37° C.

CCN1CCN(Cc2ccc(NC(=O)Nc3ccc(Oc4ccnc(NC)n4)cc3)cc2C(F)(F)F)CC1 [Example 53c, 1-[4-(4-Ethyl-piperazin-1-ylmethyl)-3-trifluoromethyl-phenyl]-3-[4-(2-methylamino-pyrimidin-4-yloxy)-phenyl]-urea]
EC50 (D835Y-Ba/F3): 3.3 nM
EC50 (ITD-Ba/F3): 0.1 nM
IC50 (RET): 350 nM

CC(C)N1CCN(Cc2ccc(NC(=O)Nc3ccc(Oc4ccnc(N)n4)cc3)cc2C(F)(F)F)CC1 [Example 45, N-[4-(2-Amino-pyrimidin-4-yloxy)-phenyl]-N′-[4-(4-isopropylpiperazin-1-ylmethyl)-3-trifluoromethyl-phenyl]-urea]
EC50 (D835Y-Ba/F3): 0.5 nM
EC50 (ITD-Ba/F3): < 0.2 nM
IC50 (RET): 400 nM
